Data on one molecule can be found in publication PMC13298843, “Substituent size versus metal binding of inhibitors with variants of influenza endonuclease^” (Journal of inorganic biochemistry, 2025).

Structures are written as SMILES.

Common to all, as to type: binding, influenza A/California/04/2009(H1N1)
Holding throughout (settings): 200 µM

Test [1] concerns the target WT PAN endonuclease (Influenza A virus, UniProt C3W5S0, DEL52-64/INS51G, form not given).
Test [2] deals with I38T mutant PAN endonuclease (Influenza A virus, UniProt C3W5S0, DEL52-64/I38T/INS51G, form not given).
For test [3], the target named is E23K mutant PAN endonuclease (Influenza A virus, UniProt C3W5S0, DEL52-64/E23K/INS51G, form not given).

For the molecule `CSc1ccccc1-c1cc(=O)c(O)c(C(=O)O)[nH]1` [Compound 3], in test [1], the “WT ΔTm (thermal shift)” value stood at 10.89 ± 0.12 °C. Further, the “I38T ΔTm (thermal shift)” value in test [2] was determined as 10.86 ± 0.12 °C. Moreover, the “E23K ΔTm (thermal shift)” value in test [3] came to 7.21 ± 0.15 °C.
